Results on eleven compounds are retold here after ChEMBL document CHEMBL1139617, “Total synthesis and bioactivity of unique flavone desmosdumotin B and its analogs” (2005).

The subject of this test is Raji. Briefly: Percent viability of Raji cells at concentration of 1000 mol ratio / 20 ng/mL TPA. In kind it is functional, Homo sapiens.
Consider `CC1(C)C(=O)C(C(=O)/C=C/c2ccccc2)=C(O)C(C)(C)C1=O`, for which the Viability came to 70%.

For `CC1=C(O)C(C)(C)C(O)=C(C(=O)/C=C/c2ccccc2)C1O` (stereo unspecified), the Viability is given as 70%.

Turning to `COC1=C(C)C(=O)c2c(oc(-c3ccccc3)cc2=O)C1(C)C`, the Viability turned out to be 70%.

As for `CC(=O)C1=C(O)C(C)(C)C(O)=C(C(C)=O)C1=O`, the Viability was 60%.

As for `CC(=O)C1=C(O)C(C)(C)C(O)=CC1=O`, the Viability is on record as 60%.

Turning to `CC(=O)C1=C(O)C(C)=C(O)C(C)(C)C1=O`, the Viability was found to be 60%.

As for `CC(=O)c1c(O)cc(O)c(C(C)=O)c1O`, the Viability was found to be 60%.

Consider `CC(=O)C1=C(O)C(C)(C)C(=O)C(C)(C)C1=O`, for which the Viability is 60%.

Take `CC1=C(O)C(C)(C)C2=C(C(=O)CC(c3ccccc3)O2)C1=O` (stereo unspecified): the Viability is 70%.

Turning to `COC1=C(C)C(O)=C(C(=O)/C=C/c2ccccc2)C(=O)C1(C)C` [DESMOSDUMOTIN C], the Viability is 70%.

As for `CC1=C(O)C(C)(C)c2oc(-c3ccccc3)cc(=O)c2C1=O` [DESMOTUMOTIN B], the Viability turned out to be 70%.
